Data reported in patent US10392348B2, “2-oxo-3,4-dihydroquinoline compounds as plant growth regulators” (Syngenta Participations AG, priority 2015, dated 2019).
Like-named read-outs stand apart in the source and are kept apart here.

Assays:
[1] = system: soybean plants (variety S20-G7); experiment: Reduced plant water use in soybean (foliar spray, repeated weighing of pots); type: in vivo; details: vs negative control; for change in vivo at 500 µM: Glycine max, foliar, Table B1, sprayed at 500 μM; for % WU 0 DAA AM*: 0 DAA a.m.; for % WU 0DAA PM: 0 DAA p.m.; for % WU 1DAA AM: 1 DAA a.m.; for % WU 1DAA PM: 1 DAA p.m.; for % WU 2 DAA AM: 2 DAA a.m.; for % WU 2 DAA PM: 2 DAA p.m.
Method: Compounds were tested for their effect on reducing plant water use as follows. Each compound was dissolved in a blank emulsifiable concentrate (EC) formulation that was then diluted to the desired concentration with water containing additional surfactant (EXTRAVON 1 g/20 L). The compounds were applied by foliar spray to 12 day old soybean plants (variety S20-G7) grown in controlled environment plant growth chambers. Plant water use during the day was assessed by repeated weighing of the pots in which the plants were grown before and after application of the compounds at the indicated times (expressed in days after application (DAA)). The water use data before application was used to correct any differences in water use arising due to non-treatment effects (e.g. due to differences in plant size). The untransformed water use values were subjected to an analysis of covariance, fitting the effect of treatment and using the baseline water use 1 day before application as a covariate.
The results are expressed compared to negative control treatment (diluted EC formulation without active ingredient but with EXTRAVON 1 g/20 L).
Application of the chemicals (0 DAA) takes place approximately between 08:00 and 09:30 a.m. WU is measured within day time (chamber light is on 06:00 to 20:00) at these timepoints: 0 DAA a.m. (10:30-12:50), 0 DAA p.m. (14:00-19:50), 1 DAA a.m. (7:30-12:50), 1 DAA p.m. (14:00-19:50), 2 DAA a.m. (07:30-12:50) and 2 DAA p.m. (14:00-19:50). The cumulative total WU (0-2.5 DAA) is calculated by summing the WU data mentioned above.

[2] = system: corn plants (variety NK OCTET); experiment: Reduced plant water use in corn (foliar spray, repeated weighing of pots); type: in vivo; details: Zea mays, corn plants sprayed at 500 μM, average of 6 pots
Method: Compounds were tested for their effect on reducing plant water use as follows. The compounds were applied by foliar spray to 12 day old corn plants (variety NK OCTET) grown in controlled environment plant growth chambers. All compounds were applied using an emulsifiable concentrate (EC) formulation that was diluted to the desired concentrations with water containing 0.4% of the adjuvant rape seed methyl ester. Plant water use during the day was assessed by repeated weighing of the pots in which the plants were grown before and after application of the compounds at the indicated times (expressed in days after application (DAA)). The water use data before application was used to correct any differences in water use arising due to non-treatment effects (e.g. due to differences in plant size). The untransformed water use values were subjected to an analysis of covariance, fitting the effect of treatment and using the baseline water use 1 day before application as a covariate. Application of the chemicals (0 DAA) takes place approximately between 08:00 and 09:30 a.m. WU is measured within day time (chamber light is on 06:00 to 20:00) at these timepoints: 0 DAA a.m. (10:30-12:50), 0 DAA p.m. (14:00-19:50), 1 DAA a.m. (07:30-12:50), 1 DAA p.m. (14:00-19:50), 2 DAA a.m. (07:30-12:50) and 2 DAA p.m. (14:00-19:50). The cumulative total WU (0-2.5 DAA) is calculated by summing the WU data mentioned above.

[3] = 0 h, 0 DAA a.m. (10:30-12:50), read-out: % WU 0 DAA AM
[4] = 24 h, 1 DAA a.m. (7:30-12:50), read-out: % WU 1DAA AM
[5] = 24 h, 1 DAA p.m. (14:00-19:50), read-out: % WU 1DAA PM
[6] = 48 h, 2 DAA a.m. (07:30-12:50), read-out: % WU 2 DAA AM
[7] = 48 h, 2 DAA p.m. (14:00-19:50), read-out: % WU 2 DAA PM
[8] = 60 h, cumulative total WU (0-2.5 DAA), read-out: % WU Total 0 to 2.5 DAA
[9] = 0 h, water use during day time vs negative control, 0 DAA a.m. (10:30-12:50), read-out: % WU 0 DAA AM
[10] = 0 h, water use during day time vs negative control, 0 DAA p.m. (14:00-19:50), read-out: % WU 0DAA PM
[11] = 24 h, water use during day time vs negative control, 1 DAA a.m. (07:30-12:50), read-out: % WU 1DAA AM
[12] = 24 h, water use during day time vs negative control, 1 DAA p.m. (14:00-19:50), read-out: % WU 1DAA PM
[13] = 48 h, water use during day time vs negative control, 2 DAA a.m. (07:30-12:50), read-out: % WU 2 DAA AM
[14] = 48 h, water use during day time vs negative control, 2 DAA p.m. (14:00-19:50), read-out: % WU 2 DAA PM
[15] = 60 h, cumulative total water use 0-2.5 DAA (sum of the time points) vs negative control, read-out: % WU Total 0 to 2.5 DAA

For `CCCN1C(=O)CCc2cc(CNS(=O)(=O)CCCC(F)(F)F)ccc21` [Compound 3.020, 4,4,4-trifluoro-N-[(2-oxo-1-propyl-3,4-dihydroquinolin-6-yl)methyl]butane-1-sulfonamide], the change in vivo at 500 µM [1, 3] was -19.3%, the change in vivo at 500 µM [1, 4] was -10.1% and the change in vivo at 500 µM [1, 5] was -5.5%. It also gave a change in vivo at 500 µM [1, 6] of -7.4%, a change in vivo at 500 µM [1, 7] of -4.2% and a change in vivo at 500 µM [1, 8] of -8.5%. The change in vivo at 500 µM [2, 9] was -19.2%, the change in vivo at 500 µM [2, 10] was -13.7% and the change in vivo at 500 µM [2, 11] was -14.8%. It also gave a change in vivo at 500 µM [2, 12] of -12.1%, a change in vivo at 500 µM [2, 13] of -11.5% and a change in vivo at 500 µM [2, 14] of -8.5%. For the same compound, the change in vivo at 500 µM [2, 15] was -12.7%.
For `CCCN1C(=O)CCc2cc(CNS(=O)(=O)/C=C/c3ccccc3F)ccc21` [Compound 3.056, (E)-2-(2-fluorophenyl)-N-[(2-oxo-1-propyl-3,4-dihydroquinolin-6-yl)methyl]ethenesulfonamide], the change in vivo at 500 µM [2, 9] was -8.4%, the change in vivo at 500 µM [2, 10] was -2.7% and the change in vivo at 500 µM [2, 11] was -5.6%. The change in vivo at 500 µM [2, 12] was -4.4%, the change in vivo at 500 µM [2, 13] was -4.7% and the change in vivo at 500 µM [2, 14] was -3.2%. For the same compound, the change in vivo at 500 µM [2, 15] was -4.6%.
`CCCN1C(=O)CCc2cc(CNS(=O)(=O)CCC)ccc21` [Compound 3.062, N-[(2-oxo-1-propyl-3,4-dihydroquinolin-6-yl)methyl]propane-1-sulfonamide] was tested, and the change in vivo at 500 µM [2, 9] was -17.8%, the change in vivo at 500 µM [2, 10] was -13% and the change in vivo at 500 µM [2, 11] was -13%. For the same compound, the change in vivo at 500 µM [2, 12] was -9.8%, the change in vivo at 500 µM [2, 13] was -8.1% and the change in vivo at 500 µM [2, 14] was -6.3%. The change in vivo at 500 µM [2, 15] was -10.5%.
`C/C=C/CS(=O)(=O)NCc1ccc2c(c1)CCC(=O)N2CCC` [Compound 3.066, (E)-N-[(2-oxo-1-propyl-3,4-dihydroquinolin-6-yl)methyl]but-2-ene-1-sulfonamide] showed a change in vivo at 500 µM [2, 9] of -10.8%, a change in vivo at 500 µM [2, 10] of -7.1% and a change in vivo at 500 µM [2, 11] of -7.1%. It also gave a change in vivo at 500 µM [2, 12] of -6.8%, a change in vivo at 500 µM [2, 13] of -4.7% and a change in vivo at 500 µM [2, 14] of -5.5%. The change in vivo at 500 µM [2, 15] was -6.4%.
Compound `C=CCS(=O)(=O)NCc1ccc2c(c1)CCC(=O)N2CCC` [Compound 3.071, N-[(2-oxo-1-propyl-3,4-dihydroquinolin-6-yl)methyl]prop-2-ene-1-sulfonamide] has a change in vivo at 500 µM [2, 9] of -11.2%, a change in vivo at 500 µM [2, 10] of -6.5% and a change in vivo at 500 µM [2, 11] of -4.5%. It also gave a change in vivo at 500 µM [2, 12] of -4.7%, a change in vivo at 500 µM [2, 13] of -3.5% and a change in vivo at 500 µM [2, 14] of -2.4%. The change in vivo at 500 µM [2, 15] was -4.9%.
`CCCN1C(=O)CCc2cc(C3(NS(=O)(=O)c4ccccc4)CC3)ccc21` [Compound 15.001, N-[1-(2-oxo-1-propyl-3,4-dihydroquinolin-6-yl)cyclopropyl]benzenesulfonamide] showed a change in vivo at 500 µM [1, 3] of -27.4%, a change in vivo at 500 µM [1, 4] of -14.9% and a change in vivo at 500 µM [1, 5] of -13.9%. It also gave a change in vivo at 500 µM [1, 6] of -9.5%, a change in vivo at 500 µM [1, 7] of -7.2% and a change in vivo at 500 µM [1, 8] of -15.1%. The change in vivo at 500 µM [2, 9] was -8.2%, the change in vivo at 500 µM [2, 10] was -6.5% and the change in vivo at 500 µM [2, 11] was -6.5%. It also gave a change in vivo at 500 µM [2, 12] of -3.5%, a change in vivo at 500 µM [2, 13] of -2.8% and a change in vivo at 500 µM [2, 14] of -1.8%. It also gave a change in vivo at 500 µM [2, 15] of -4.3%.
With `CCCN1C(=O)CCc2cc(C3(NS(=O)(=O)c4ccc(F)cc4)CC3)ccc21` [Compound 15.009, 4-fluoro-N-[1-(2-oxo-1-propyl-3,4-dihydroquinolin-6-yl)cyclopropyl]benzenesulfonamide] the change in vivo at 500 µM [2, 9] was -10.7%, the change in vivo at 500 µM [2, 10] was -7.8% and the change in vivo at 500 µM [2, 11] was -8.7%. For the same compound, the change in vivo at 500 µM [2, 12] was -5.8%, the change in vivo at 500 µM [2, 13] was -5.4% and the change in vivo at 500 µM [2, 14] was -5.7%. For the same compound, the change in vivo at 500 µM [2, 15] was -7.1%.
`CCN1C(=O)CC(C)c2cc(CNS(=O)(=O)c3ccc(F)cc3F)ccc21` (centres unmarked) [Compound 20.006, N-[(1-ethyl-4-methyl-2-oxo-3,4-dihydroquinolin-6-yl)methyl]-2,4-difluoro-benzenesulfonamide] was tested, and the change in vivo at 500 µM [2, 9] was -15.5%, the change in vivo at 500 µM [2, 10] was -14.5% and the change in vivo at 500 µM [2, 11] was -13.2%. The change in vivo at 500 µM [2, 12] was -7%, the change in vivo at 500 µM [2, 13] was -5.7% and the change in vivo at 500 µM [2, 14] was -4.3%. It also gave a change in vivo at 500 µM [2, 15] of -9.4%.
With `CCCN1C(=O)CCc2cc(NS(=O)(=O)Cc3ccc(C)cc3)ccc21` [Quinabactin, quinabactin, reference compound] the “% WU 0 DAA AM*” value ([1]; Table B2, rate 31.25 uM) was −0.3%, the “% WU 0DAA PM” value ([1]; Table B2, rate 31.25 uM) was −0.3% and the “% WU 1DAA AM” value ([1]; Table B2, rate 31.25 uM) was 0.2%. The “% WU 1DAA PM” value ([1]; Table B2, rate 31.25 uM) was −0.1%, the “% WU 2 DAA AM” value ([1]; Table B2, rate 31.25 uM) was −0.9% and the “% WU 2 DAA PM” value ([1]; Table B2, rate 31.25 uM) was −1.3%. The “% WU Total 0 to 2.5 DAA” value ([1]; Table B2, rate 31.25 uM, cumulative total WU (0-2.5 DAA)) was −0.7%, the “% WU 0 DAA AM*” value ([1]; Table B2, rate 125 uM) was −15.3% and the “% WU 0DAA PM” value ([1]; Table B2, rate 125 uM) was −5.7%. The “% WU 1DAA AM” value ([1]; Table B2, rate 125 uM) was 1.8%, the “% WU 1DAA PM” value ([1]; Table B2, rate 125 uM) was 2.9% and the “% WU 2 DAA AM” value ([1]; Table B2, rate 125 uM) was 2.4%. The “% WU 2 DAA PM” value ([1]; Table B2, rate 125 uM) was 1.1%, the “% WU Total 0 to 2.5 DAA” value ([1]; Table B2, rate 125 uM, cumulative total WU (0-2.5 DAA)) was −0.5% and the “% WU 0 DAA AM*” value ([1]; Table B2, rate 500 uM) was −42.0%. The “% WU 0DAA PM” value ([1]; Table B2, rate 500 uM) was −41.2%, the “% WU 1DAA AM” value ([1]; Table B2, rate 500 uM) was −18.6% and the “% WU 1DAA PM” value ([1]; Table B2, rate 500 uM) was −10.8%. For the same compound, the “% WU 2 DAA AM” value ([1]; Table B2, rate 500 uM) was −3.8%, the “% WU 2 DAA PM” value ([1]; Table B2, rate 500 uM) was −2.9% and the “% WU Total 0 to 2.5 DAA” value ([1]; Table B2, rate 500 uM, cumulative total WU (0-2.5 DAA)) was −16.9%.
